Results published in patent US10358442B2, “2-homopiperazine-1-yl-4H-1,3-benzothiazine-4-one derivatives and process for the preparation of 2-(homo)piperazine 1,3-benzothiazine-4-one hydrochlorides” (Ecole Polytechnique Federale De Lausanne (EPFL), priority 2015, dated 2019).
Values after ≈ are worked out from the molar mass of the structure shown.

Assays:
M. tuberculosis H37Rv = experiment: resazurin reduction assay (MIC99), M. tuberculosis H37Rv; format: cell-based; conditions: Mycobacterium tuberculosis, BTZ-susceptible wild type strain
Experimental: Activity against M. tuberculosis strains H37Rv and NBT1 was determined by the resazurin reduction assay (MIC99). The method is described in detail in: J. C. Palomino, A. Martin, M. Camacho, H. Guerra, J. Swings, F. Portaels, Antimicrob. Agents Chemother., 2002, 46, 2720-2722.

| SMILES | MIC99 (M. tuberculosis H37Rv) [ng/mL] | melting point [°C] |
| --- | --- | --- |
| Cl.O=c1nc(N2CCCN(CC3CCCCC3)CC2)sc2c([N+](=O)[O-])cc(C(F)(F)F)cc12 [Compound 1, 2-[4-(Cyclohexylmethyl)-1,4-diazepan-1-yl]-8-nitro-6-(trifluoromethyl)-4H-1,3-benzothiazin-4-one Hydrochloride] | 1 | 269 to 271 |
| Cl.O=c1nc(N2CCCN(CCc3ccccc3)CC2)sc2c([N+](=O)[O-])cc(C(F)(F)F)cc12 [Compound 7, 8-Nitro-2-[4-(2-phenylethyl)-1,4-diazepan-1-yl]-6-(trifluoromethyl)-4H-1,3-benzothiazin-4-one Hydrochloride] | 0.8 |  |
| CCCCN1CCN(c2nc(=O)c3cc(C(F)(F)F)cc([N+](=O)[O-])c3s2)CC1.Cl (hydrate or solvate) |  | 239 to 241 |
| Cl.O=c1nc(N2CCN(CCCCOc3ccccc3)CC2)sc2c([N+](=O)[O-])cc(C(F)(F)F)cc12 |  | 256 to 258 |
| Cl.O=c1nc(N2CCCN(CCC3CCCCC3)CC2)sc2c([N+](=O)[O-])cc(C(F)(F)F)cc12 [Compound 4, 2-[4-(2-Cyclohexylethyl)-1,4-diazepan-1-yl]-8-nitro-6-(trifluoromethyl)-4H-1,3-benzothiazin-4-one Hydrochloride] | 0.2 | 274 to 277 |
| O=c1nc(N2CCN(CC3CCCCC3)CC2)sc2c([N+](=O)[O-])cc(C(F)(F)F)cc12 [PBTZ169, 2-[4-(cyclohexylmethyl)piperazin-1-yl]-8-nitro-6-(trifluoromethyl)-4H-1,3-benzothiazin-4-one, reference compound] | 0.3 (≈ 0.657 nM) |  |
| CCCCCCCN1CCN(c2nc(=O)c3cc(C(F)(F)F)cc([N+](=O)[O-])c3s2)CC1.Cl (hydrate or solvate) |  | 254 to 256 |
| Cl.O=c1nc(N2CCCN(C3CCCCC3)CC2)sc2c([N+](=O)[O-])cc(C(F)(F)F)cc12 [Compound 6, 2-(4-Cyclohexyl-1,4-diazepan-1-yl)-8-nitro-6-(trifluoromethyl)-4H-1,3-benzothiazin-4-one Hydrochloride] | 1 |  |
| Cl.O=c1nc(N2CCCN(CCc3ccccc3)CC2)sc2c([N+](=O)[O-])cc(C(F)(F)F)cc12 (hydrate or solvate) [Compound 7, 8-Nitro-2-[4-(2-phenylethyl)-1,4-diazepan-1-yl]-6-(trifluoromethyl)-4H-1,3-benzothiazin-4-one Hydrochloride] |  | 264 to 267 |
| CCCCCN1CCCN(c2nc(=O)c3cc(C(F)(F)F)cc([N+](=O)[O-])c3s2)CC1.Cl [Compound 2, 8-Nitro-2-(4-pentyl-1,4-diazepan-1-yl)-6-(trifluoromethyl)-4H-1,3-benzothiazin-4-one Hydrochloride] | 0.2 | 246 to 248 |
| Cl.O=c1nc(N2CCN(CCC3CCCCC3)CC2)sc2c([N+](=O)[O-])cc(C(F)(F)F)cc12 (hydrate or solvate) |  | 271 to 273 |
| Cl.O=c1nc(N2CCCN(C3CCCCC3)CC2)sc2c([N+](=O)[O-])cc(C(F)(F)F)cc12 (hydrate or solvate) [Compound 6, 2-(4-Cyclohexyl-1,4-diazepan-1-yl)-8-nitro-6-(trifluoromethyl)-4H-1,3-benzothiazin-4-one Hydrochloride] |  | 290 to 293 |
| CCCCCCCN1CCCN(c2nc(=O)c3cc(C(F)(F)F)cc([N+](=O)[O-])c3s2)CC1.Cl [Compound 5, 2-(4-Heptyl-1,4-diazepan-1-yl)-8-nitro-6-(trifluoromethyl)-4H-1,3-benzothiazin-4-one Hydrochloride] | 0.3 | 256 to 258 |
| CCCCCCN1CCCN(c2nc(=O)c3cc(C(F)(F)F)cc([N+](=O)[O-])c3s2)CC1.Cl [Compound 3, 2-(4-Hexyl-1,4-diazepan-1-yl)-8-nitro-6-(trifluoromethyl)-4H-1,3-benzothiazin-4-one Hydrochloride] | 0.2 | 249 to 251 |
